Where “and” joins values, the source holds several entries; their conditions need not be identical. Identical values can stand only once.
Tests used:
70S IC = target: T1, 70S IC (Escherichia coli, UniProt P0A705); test: 70S IC formation by Bpy-tRNAi accommodation, stopped-flow; assay type: biochemical; parameters: K1, best-fit value: unit not given here; details: for A0, best-fit value / A1, best-fit value / K1, best-fit value / k2, best-fit value: fit Y=A0+A1*exp(-K1*x)+k2*x; for kfast (s-1) Avg: fluorescence
T1 construct: 6xHis (N); made in house
How it was run: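 Stopped-flow at 25 °C: 0.2 μM 30S ICs mixed with 0.6 μM 50S subunits; pre-IC formation followed by 90° light scattering (excitation 430 nm), accommodation by Bpy-tRNAi fluorescence (excitation 470 nm, 495-nm longpass). Averaged traces fitted by single or double exponentials to give kapp.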

30S-bound IF2 (30S IC) = target: T2, 30S-bound IF2 (30S IC) (Escherichia coli, UniProt P0A705); test: ppGpp (or GDP) to GTP competitive assay for 30S IC formation by MST; assay type: binding
T2 construct: 6xHis (N); made in house
Experimental: MST was calculated from the respective fluorescence time dependencies (S3 Fig). […] Symbols as in (B). […] Continuous lines indicate nonlinear regression fittings with quadratic (B and E) or same-site competition (G) functions. Three measurements were performed; mean and standard deviations are plotted (S1 Data).
[…] Symbols are as indicated, 3 measurements were performed, and mean and standard deviation are plotted (S1 Data). Continuous lines show nonlinear regression fittings with a same-site inhibition model. […] (PDF) Click here for additional data file.

T2 sequence (P0A705 whole entry, looked up): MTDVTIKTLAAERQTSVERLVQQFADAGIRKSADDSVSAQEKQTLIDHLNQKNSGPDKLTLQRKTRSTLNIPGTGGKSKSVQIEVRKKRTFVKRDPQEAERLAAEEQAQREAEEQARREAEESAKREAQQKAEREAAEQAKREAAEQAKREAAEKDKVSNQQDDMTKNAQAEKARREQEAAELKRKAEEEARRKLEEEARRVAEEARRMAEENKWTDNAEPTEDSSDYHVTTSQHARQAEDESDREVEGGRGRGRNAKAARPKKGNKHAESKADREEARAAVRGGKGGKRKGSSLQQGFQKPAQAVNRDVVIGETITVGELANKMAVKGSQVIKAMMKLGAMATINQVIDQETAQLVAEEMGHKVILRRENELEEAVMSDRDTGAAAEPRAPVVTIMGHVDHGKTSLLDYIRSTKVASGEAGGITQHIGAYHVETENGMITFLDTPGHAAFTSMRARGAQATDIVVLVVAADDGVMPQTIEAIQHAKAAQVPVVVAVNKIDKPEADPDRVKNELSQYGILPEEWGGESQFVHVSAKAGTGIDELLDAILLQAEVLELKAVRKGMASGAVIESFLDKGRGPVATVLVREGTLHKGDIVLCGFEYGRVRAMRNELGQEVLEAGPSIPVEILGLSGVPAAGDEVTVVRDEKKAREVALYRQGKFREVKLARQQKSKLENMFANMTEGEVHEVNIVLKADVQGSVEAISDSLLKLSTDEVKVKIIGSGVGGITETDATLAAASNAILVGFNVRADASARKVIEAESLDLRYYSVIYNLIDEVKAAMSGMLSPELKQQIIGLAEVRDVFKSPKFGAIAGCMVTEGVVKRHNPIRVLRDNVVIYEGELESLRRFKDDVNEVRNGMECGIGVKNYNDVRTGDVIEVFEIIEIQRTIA
T1 sequence (P0A705 whole entry, looked up): as above

SMILES: Nc1nc2c(ncn2[C@@H]2O[C@H](COP(=O)(O)OP(=O)(O)O)[C@@H](OP(=O)(O)OP(=O)(O)O)[C@H]2O)c(=O)[nH]1 [ppGpp]
- efficiency (amplitude) of 70S IC formation (Bpy-tRNAi accommodation) (70S IC; 0.2 mM nucleotide, no GTP): reduced efficiencies
- A0, best-fit value (70S IC; mInfA): 0.98
- A1, best-fit value (70S IC; mInfA): 0.01
- K1, best-fit value (70S IC; mInfA): 1.82
- k2, best-fit value (70S IC; mInfA): -0.00033
- A0, best-fit value (70S IC; mMF1): 0.97
- A1, best-fit value (70S IC; mMF1): 0.0267
- K1, best-fit value (70S IC; mMF1): 1.27
- k2, best-fit value (70S IC; mMF1): -0.00023
- Fluorescence Amplitude Avg (70S IC; mRNA mInfA): 0.010
- kfast (s-1) Avg (70S IC; mRNA mInfA): 1.82 s⁻¹
- Fluorescence Amplitude Avg (70S IC; mRNA mMF1): 0.027
- kfast (s-1) Avg (70S IC; mRNA mMF1): 1.27 s⁻¹
- Fluorescence Amplitude Avg (70S IC; mRNA mTufA): 0.043
- kfast (s-1) Avg (70S IC; mRNA mTufA): 3.37 s⁻¹
- A0, best-fit value (70S IC; mTufA): 0.96
- A1, best-fit value (70S IC; mTufA): 0.0429
- K1, best-fit value (70S IC; mTufA): 3.37
- k2, best-fit value (70S IC; mTufA): -0.00059
- MST Average (30S-bound IF2 (30S IC); mInfA, Log [ppGpp] 0.29): 1046.47 a.u.
- MST Average (30S-bound IF2 (30S IC); mInfA, Log [ppGpp] 0.59): 1038.08 a.u.
- MST Average (30S-bound IF2 (30S IC); mInfA, Log [ppGpp] 0.89): 1028.93 a.u.
- MST Average (30S-bound IF2 (30S IC); mInfA, Log [ppGpp] 1.19): 1018.24 a.u.
- MST Replicates (a.u.) (30S-bound IF2 (30S IC); mInfA, Log [ppGpp] 1.19): 1017.94 a.u. and 1018.60 a.u. and 1018.17 a.u.
- MST Average (30S-bound IF2 (30S IC); mInfA, Log [ppGpp] 1.49): 1003.04 a.u.
- MST Replicates (a.u.) (30S-bound IF2 (30S IC); mInfA, Log [ppGpp] 1.49): 1002.79 a.u. and 1003.03 a.u. and 1003.30 a.u.
- MST Average (30S-bound IF2 (30S IC); mInfA, Log [ppGpp] 1.80): 986.30 a.u.
- MST Replicates (a.u.) (30S-bound IF2 (30S IC); mInfA, Log [ppGpp] 1.80): 985.49 a.u. and 986.54 a.u. and 986.87 a.u.
- MST Average (30S-bound IF2 (30S IC); mInfA, Log [ppGpp] 2.10): 973.31 a.u.
- MST Replicates (a.u.) (30S-bound IF2 (30S IC); mInfA, Log [ppGpp] 2.10): 972.70 a.u. and 973.61 a.u. and 973.64 a.u.
- MST Average (30S-bound IF2 (30S IC); mInfA, Log [ppGpp] 2.40): 964.30 a.u.
- MST Replicates (a.u.) (30S-bound IF2 (30S IC); mInfA, Log [ppGpp] 2.40): 963.79 a.u.
- MST Average (30S-bound IF2 (30S IC); mInfA, Log [ppGpp] 2.70): 958.86 a.u.
- MST Average (30S-bound IF2 (30S IC); mInfA, Log [ppGpp] -0.01): 1048.67 a.u.
- MST Average (30S-bound IF2 (30S IC); mInfA, Log [ppGpp] -0.31): 1053.58 a.u.
- MST Average (30S-bound IF2 (30S IC); mInfA, Log [ppGpp] -0.61): 1049.04 a.u.
- MST Average (30S-bound IF2 (30S IC); mMF1, Log [ppGpp] 0.29): 1016.08 a.u.
- MST Average (30S-bound IF2 (30S IC); mMF1, Log [ppGpp] 0.59): 1007.03 a.u.
- MST Average (30S-bound IF2 (30S IC); mMF1, Log [ppGpp] 0.89): 999.03 a.u.
- MST Average (30S-bound IF2 (30S IC); mMF1, Log [ppGpp] 1.19): 986.05 a.u.
- MST Replicates (a.u.) (30S-bound IF2 (30S IC); mMF1, Log [ppGpp] 1.19): 985.88 a.u. and 986.00 a.u. and 986.26 a.u.
- MST Average (30S-bound IF2 (30S IC); mMF1, Log [ppGpp] 1.49): 972.28 a.u.
- MST Replicates (a.u.) (30S-bound IF2 (30S IC); mMF1, Log [ppGpp] 1.49): 971.54 a.u. and 972.59 a.u. and 972.70 a.u.
- MST Average (30S-bound IF2 (30S IC); mMF1, Log [ppGpp] 1.80): 959.11 a.u.
- MST Replicates (a.u.) (30S-bound IF2 (30S IC); mMF1, Log [ppGpp] 1.80): 958.37 a.u. and 959.24 a.u. and 959.71 a.u.
- MST Average (30S-bound IF2 (30S IC); mMF1, Log [ppGpp] 2.10): 947.40 a.u.
- MST Replicates (a.u.) (30S-bound IF2 (30S IC); mMF1, Log [ppGpp] 2.10): 946.23 a.u. and 947.67 a.u. and 948.30 a.u.
- MST Average (30S-bound IF2 (30S IC); mMF1, Log [ppGpp] 2.40): 939.79 a.u.
- MST Replicates (a.u.) (30S-bound IF2 (30S IC); mMF1, Log [ppGpp] 2.40): 938.92 a.u.
- MST Average (30S-bound IF2 (30S IC); mMF1, Log [ppGpp] 2.70): 942.02 a.u.
- MST Average (30S-bound IF2 (30S IC); mMF1, Log [ppGpp] -0.01): 1022.73 a.u.
